Data reported in paper PMC11508334, “In Vitro Evaluation of New 5-Nitroindazolin-3-one Derivatives as Promising Agents against Trypanosoma cruzi” (International Journal of Molecular Sciences, 2024).

Experiments:
[1] = Cyclic voltammetry, reduction of nitro group; format: physicochemical; conditions: for −EpaIII: anodic peak potential of couple IIIc/IIIa; for −EpaIII / −EpcIII / −E1/2: given with inverted sign, vs. Ag/AgCl electrode in DMSO; for −EpcIII: cathodic peak potential of couple IIIc/IIIa; for Ipa/Ipc: current ratio RNO2/RNO2•−, couple IIIc/IIIa, DMSO; for −E1/2: half-wave potential of couple IIIc/IIIa
Description: Cyclic Voltammetry (CV) was carried out using a Metrohm Autolab instrument model PGSTAT204, using dimethyl sulfoxide (DMSO) as the solvent (1 mM solutions), tetrabutylammonium perchlorate (0.1 M TBAP) as the supporting electrolyte, a hanging drop mercury electrode (HDME) as the working electrode, Ag/AgCl (3M KCl) as the reference electrode, and a graphite rod as the counter electrode. All measurements were performed after bubbling with nitrogen (N2) for 10 min.
Using Nicholson’s procedure, the Ipa/Ipc values (RNO2/RNO2^•−) were measured from each cyclic voltammogram with a scan rate between 0.1 and 2.5 V/s.

[2] = system: RAW 264.7 cells; assay: Cytotoxicity MTT assay on RAW 264.7 cells; format: cell-based; conditions: Mus musculus, RAW264.7, in vitro cytotoxicity, murine RAW 264.7 macrophages
Description: The compounds under study, dissolved in dimethylsulfoxide (DMSO), were added to the culture media at 10–200 μM. RAW 264.7 cells were cultured in 96-well plates (5 × 10^4 cells per well), and 100 μL of 0.5 mg/mL MTT was added to each well. The DMSO final concentration was less than 0.1% v/v. After incubation for 4 h at 37 °C, the generated water-insoluble formazan dye was dissolved by adding 100 μL of 10% w/v sodium dodecyl sulfate (SDS) in 0.01 M HCl. The plates were further incubated overnight at 37 °C; […] 0.5% of Triton X-100 was added as a positive control. The plates were further incubated overnight at 37 °C, and the optical density of the wells was determined using a microplate reader (Asys Expert Plus©, Asys Hitachi, Vienna, Austria) at 570 nm. Under these conditions, the optical density is directly proportional to the viable cell number in each well. All experiments were performed at least thrice and data were reported as means and their standard deviations from triplicate cultures. Results are reported as IC50 regarding the control (uninfected cells in culture medium)

[3] = system: T. cruzi epimastigote stage (Dm28c strain); assay: Epimastigotes viability study (MTT); format: cell-based, Trypanosoma cruzi; conditions: for SI Epimastigote: Selectivity Index IC50 macrophages RAW 264.7/IC50 epimastigotes Dm28c; for IC50: Trypanosoma cruzi, T. cruzi Dm28c epimastigotes, 24 h, MTT
Description: The trypanocidal activity was evaluated against the T. cruzi epimastigote stage (Dm28c strain). It was measured through the MTT assay using 0.22 mg/mL phenazine methosulfate (as an electron carrier). T. cruzi epimastigote from the author's collection (Programa de Farmacología Molecular y Clínica, Facultad de Medicina, Universidad de Chile, Santiago, Chile) were grown at 28 °C in liver infusion tryptase (LIT) medium, as reported earlier, but replacing blood with 4 μM hemin. […] fetal bovine serum (FBS) was added to a final concentration of 10% v/v. In this colorimetric assay for testing the trypanocidal activity, the compounds were dissolved in DMSO. They were added to 3 × 10^6 parasites/mL at 100 μM final concentrations in RPMI 1640 culture medium without phenol red for 24 h at 28 °C. The final concentration of DMSO was less than 0.1% v/v. […] The MTT assay, which was described previously, determined the viability of the epimastigotes.

[4] = system: Dm28c trypomastigotes; assay: Trypomastigote viability study (MTT); format: cell-based, Trypanosoma cruzi; conditions: for SI Trypomastigote: Selectivity Index IC50 macrophages RAW 264.7/IC50 trypomastigotes Dm28c; for IC50: Trypanosoma cruzi, T. cruzi Dm28c trypomastigotes, 24 h, MTT
Description: Vero cells (ATCC CCL-81) were infected with Dm28c trypomastigotes at a 1:3 (cell: parasite) ratio. T. cruzi trypomastigotes were initially obtained from primary cultures of peritoneal macrophage from chagasic mice. […] Vero cell cultures were then infected with trypomastigotes and incubated at 37 °C in humidified air and 5% CO2 for 5–7 days. After that time, the culture medium was collected and centrifuged at 500× g for 5 min. The trypomastigote-containing pellet was re-suspended in RPMI 1640 supplemented with inactivated FBS and penicillin–streptomycin at a final 1 × 10^7 parasites/mL density. Trypomastigote viability assays were performed using the MTT reduction method as described previously. Then, 1 × 10^7 parasites/mL was incubated in RPMI 1640 with inactivated FBS at 37 °C for 24 h with or without the studied compounds.

−EpaIII [1] [V]	−EpcIII [1] [V]	Ipa/Ipc [1]	−E1/2 [1] [V]	IC50 [3] [µM]	melting point [°C]	SMILES	IC50 [2] [µM]	SI Epimastigote [3]	SI Trypomastigote [4]	IC50 [4] [µM]
0.93	1.08	0.98	1.00	–	–	O=C(Cn1ccnc1[N+](=O)[O-])NCc1ccccc1 [BNZ, benznidazole, reference compound]	–	–	–	–
0.96	1.17	0.93	1.07	40.3 ± 2	154 to 156	Cn1c2ccc([N+](=O)[O-])cc2c(=O)n1Cc1cccc(Cl)c1 [Compound 10, 2-(3-Chlorobenzyl)-1-methyl-5-nitro-1,2-dihydro-3H-indazol-3-one]	> 200	>5.0	>3.7	54.2 ± 1.1
0.96	1.17	1.00	1.07	30.3 ± 1.1	182 to 184	Cn1c2ccc([N+](=O)[O-])cc2c(=O)n1Cc1ccccc1Br [Compound 12, 2-(2-Bromobenzyl)-1-methyl-5-nitro-1,2-dihydro-3H-indazol-3-one]	72.4 ± 1.6	2.4	1.4	52.5 ± 1.3
0.99	1.20	0.94	1.10	83.9 ± 1.9	144 to 146	Cn1c2ccc([N+](=O)[O-])cc2c(=O)n1Cc1ccc(Br)cc1 [Compound 14, 2-(4-Bromobenzyl)-1-methyl-5-nitro-1,2-dihydro-3H-indazol-3-one]	172 ± 2.3	2.1	3.5	48.6 ± 1.2
1.03	1.15	0.91	1.09	> 100	139 to 141	COc1ccc(Cn2c(=O)c3cc([N+](=O)[O-])ccc3n2C)cc1 [Compound 16, 2-(4-Methoxybenzyl)-1-methyl-5-nitro-1,2-dihydro-3H-indazol-3-one]	> 200	–	–	> 100
0.82	1.37	0.96	1.10	35.4 ± 1.1	211 to 213	Cn1c2ccc([N+](=O)[O-])cc2c(=O)n1Cc1ccccc1C(F)(F)F [Compound 17, 1-Methyl-5-nitro-2-[2-(trifluoromethyl)benzyl]-1,2-dihydro-3H-indazol-3-one]	166 ± 2.3	4.7	1.9	89.3 ± 1

Second part, the compound before the results:

SMILES	−EpaIII [1] [V]	−EpcIII [1] [V]	Ipa/Ipc [1]	−E1/2 [1] [V]	IC50 [3] [µM]	melting point [°C]	IC50 [2] [µM]	SI Epimastigote [3]	SI Trypomastigote [4]	IC50 [4] [µM]
O=c1c2cc([N+](=O)[O-])ccc2[nH]n1-c1ccccc1 [Compound 4]	1.27	1.37	0.63	1.32	46.9 ± 3.4	–	97.5 ± 1.2	2.1	1.5	63.4 ± 1.4
Cn1c2ccc([N+](=O)[O-])cc2c(=O)n1Cc1ccccc1F [Compound 6]	0.94	1.22	0.99	1.08	32.9 ± 0.7	–	83.9 ± 0.9	2.6	1.5	56.4 ± 1.5
Cn1c2ccc([N+](=O)[O-])cc2c(=O)n1Cc1cccc(F)c1 [Compound 7, 2-(3-Fluorobenzyl)-1-methyl-5-nitro-1,2-dihydro-3H-indazol-3-one]	0.98	1.20	1.00	1.09	29.5 ± 1.5	125 to 127	95.1 ± 1.1	3.2	2.3	41.2 ± 0.8
Cn1c2ccc([N+](=O)[O-])cc2c(=O)n1Cc1ccc(F)cc1 [Compound 8, 2-(4-Fluorobenzyl)-1-methyl-5-nitro-1,2-dihydro-3H-indazol-3-one]	0.99	1.14	1.00	1.07	36.4 ± 0.8	139 to 141	116 ± 1.7	3.2	2.0	57.8 ± 1.3
Cn1c2ccc([N+](=O)[O-])cc2c(=O)n1Cc1ccccc1Cl [Compound 9, 2-(2-Chlorobenzyl)-1-methyl-5-nitro-1,2-dihydro-3H-indazol-3-one]	1.02	1.10	0.96	1.06	43.7 ± 2	179 to 181	176 ± 2.3	4.0	2.8	61.6 ± 1.4
CC(c1ccccc1)n1c(=O)c2cc([N+](=O)[O-])ccc2n1C (stereo not shown) [Compound 18, 1-Methyl-5-nitro-2-(1-phenylethyl)-1,2-dihydro-3H-indazol-3-one]	1.02	1.12	0.91	1.07	68.7 ± 1.7	155 to 157	> 200	>2.9	–	> 100
Cn1nc(O)c2cc([N+](=O)[O-])ccc21 [Compound 19, 1-methyl-5-nitroindazol-3-ol]	1.28	1.35	0.65	1.32	> 100	–	> 200	–	–	> 100
O=[N+]([O-])c1ccc2c(c1)c(O)nn2CCCCCO [Compound 20]	1.28	1.38	0.67	1.33	> 100	–	> 200	–	–	> 100
O=[N+]([O-])c1ccc2c(c1)c(O)nn2CCCCCCCl [Compound 21]	1.27	1.37	0.56	1.32	84.3 ± 2.1	–	> 200	>2.4	>2.1	91.2 ± 2.2
COc1nn(C)c2ccc([N+](=O)[O-])cc12 [Compound 23]	1.25	1.37	0.78	1.31	> 100	–	> 200	–	–	> 100
CC1CS(=O)(=O)CCN1/N=C/c1ccc([N+](=O)[O-])o1 (stereo not shown) [NFX, nifurtimox, reference compound]	0.85	0.91	1.01	0.88	17.4 ± 1.3	–	263.4 ± 2.2	15.1	12.3	21.5 ± 1.4
